From patent EP1566447A1, “Glimepiride- and insulin-induced glycosylphosphatidylinositol-specific phospholipase C regulation” (priority 2004, dated 2005)

Tests used:
Assay type in all cases: biochemical
bovine AChE = biological target: T1, bovine AChE (Bos taurus, UniProt P23795); experiment: selectivity: AChE activity; settings: 50 µM
T1 construct: solubilized and partially purified bovine erythrocyte AChE; from tissue; host or cells: bovine erythrocytes
Procedure: Electroporation was performed as described in "Müller, G. et al., (2000) Mol. Cell. Biol. 20: 4708-4723". Lipolysis was determined as release of glycerol or fluorescent NBD-FA from prelabeled and isoproterenol-stimulated adipocytes as described in "Müller, G. et al., (2003) Biochimie 85: 1245-1256". Gce1 was detected by photolabeling of solubilized plasma membranes or hc/IcDIGs (10-50 µg protein) with 8-N3-[^32P]cAMP and subsequent phosphorimaging as described in "Müller, G. et al., (1994) Biochemistry 33: 12149-12159". 5'-Nuc, aP and AChE activities were measured according to "Eliakim, R. et al., (1990) Biochim. Biophys. Acta 1355: 293-302". Protein was determined using the BCA protein determination kit from Pierce (Rockford, IL) and BSA as calibration standard. SDS-PAGE was performed using precast gels (Novex, San Diego, CA; 10 % Bis-Tris resolving gel, morpholinopropanesulfonic acid-SDS running buffer). Lumiimages were evaluated on a Lumilmager using Lumilmager software (Roche Diagnostics). Phosphor- and fluorescence images were processed and quantified using the Storm 860 Phosphorlmager system (Molecular Dynamics, Gelsenkirchen, Germany). Figures were constructed using the Adobe Photoshop software (Adobe Systems, Mountain View, CA).
Fig. 3: Selectivity of GPI-2350. […]

[1] = test system: bacterial, trypanosomal, serum and rat adipocyte GPI-PLC/D; experiment: (G)PI-PLC/D of various origin, results stated collectively
Procedure: GPI-PLD (rat serum) was assayed according to "Hari et al. (1997) Biochim. Biophys. Acta 1355: 293-302" by incubation with 10 µl of human placental aP solution (100 U/ml in 10 mM Hepes/NaOH, pH 7.0, 150 mM NaCl) in 100 µl of 200 mM Tris/maleate (pH 7.0) and 1 % Nonidet P-40 for 10 min at 37°C and subsequent termination of the reaction by addition of 0.4 ml of ice-cold stop buffer (10 mM Hepes/NaOH, pH 7.0, 150 mM NaCl, 0.1 mM MgCl2 and 0.01 mM zinc acetate). GPI-PLC (T. brucei) was assayed as described in "Mensa-Wilmot et al. (1995) Methods Enzymol. 250: 641-655" by incubation with 5 µl of human placental aP solution (see above) in 50 µl of 50 mM Tris/HCl (pH 8.0), 0.25 % Nonidet P-40 and 5 mM EDTA for 30 min at 37°C and subsequent termination of the reaction by addition of 0.45 ml of stop buffer. […]
Pelleted hc/IcDIGs (10-50 µg protein) or (G)PI-PLC reaction mixtures (0.5 ml) were separated into amphiphilic and hydrophilic proteins using partitioning between TX-114-enriched and depleted phases according to "Bordier, C., (1981) J. Biol, Chem. 272: 2542-2550" by suspending in 1 ml of ice-cold TX-114 (1 %), 25 mM Tris/HCl (pH 7.4), 144 mM NaCl or mixing with 0.5 ml of ice-cold TX-114 (2 %), respectively. […] After re-extraction of the lower TX-114-enriched phase, aliquots of the pooled upper TX-114-depleted phase were measured for 5'-Nuc, aP and AChE activity or precipitated (15 % polyethylene glycol 4000) for SDS-PAGE analysis.
GPI-2350 inhibits (G)PI-PLC/D of various origin with high potency and selectivity: The effect of GPI-2350 on (purified or crude) B. cereus PI-PLC, T. brucei GPI-PLC and rat serum GPI-PLD was monitored by their incubation with partially purified solubilized GPI proteins under appropriate conditions (low or high detergent conc.) in the presence of increasing concentrations of GPI-2350. […]

bacterial PC-PLC = biological target: T2, bacterial PC-PLC (Bacillus cereus, UniProt P09598); experiment: selectivity: PC-PLC assay; settings: 50 µM
T2 construct: purchased Sigma/Aldrich (Deisenhofen, Germany)
T2 sequence (P09598 39-283 limits assumed): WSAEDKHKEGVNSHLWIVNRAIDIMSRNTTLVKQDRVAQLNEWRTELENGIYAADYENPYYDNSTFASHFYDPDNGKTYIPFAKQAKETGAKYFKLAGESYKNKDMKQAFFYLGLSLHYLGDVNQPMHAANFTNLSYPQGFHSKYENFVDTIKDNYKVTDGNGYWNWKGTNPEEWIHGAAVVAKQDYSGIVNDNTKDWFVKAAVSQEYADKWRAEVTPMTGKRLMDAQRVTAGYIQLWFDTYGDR

T1 sequence (P23795 other isoform, or with tags, fused parts or gaps): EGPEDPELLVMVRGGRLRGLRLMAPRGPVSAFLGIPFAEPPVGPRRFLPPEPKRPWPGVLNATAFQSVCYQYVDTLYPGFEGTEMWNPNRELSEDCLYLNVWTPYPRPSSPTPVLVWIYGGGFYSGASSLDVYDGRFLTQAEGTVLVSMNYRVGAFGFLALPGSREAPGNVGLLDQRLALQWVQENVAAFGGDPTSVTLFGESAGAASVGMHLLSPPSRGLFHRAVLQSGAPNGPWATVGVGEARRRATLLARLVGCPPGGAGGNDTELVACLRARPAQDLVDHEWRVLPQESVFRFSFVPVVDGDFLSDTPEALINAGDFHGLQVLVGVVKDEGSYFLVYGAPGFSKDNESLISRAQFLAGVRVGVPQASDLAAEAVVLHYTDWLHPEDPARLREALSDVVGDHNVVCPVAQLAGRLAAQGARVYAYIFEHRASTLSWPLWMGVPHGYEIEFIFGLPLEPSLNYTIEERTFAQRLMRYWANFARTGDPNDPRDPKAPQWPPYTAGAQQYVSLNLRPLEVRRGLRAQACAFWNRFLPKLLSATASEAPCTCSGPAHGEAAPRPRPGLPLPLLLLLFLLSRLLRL

Compound: CCCCCCCCCCCCP1(=O)O[C@@H]2[C@H](O)[C@@H](O)[C@H](O)[C@@H](O)[C@@H]2O1 (mixture of isomers) [GPI-2350, myo-inositol-1,2-cyclo-dodecylphosphonic acid]
- effect on AChE activity (bovine AChE): not significantly affected
- blocked GPI-PLC/D by ([1]; 50 µM, one range for all four enzymes, Fig. 3): 60 to 95%
- reversal of half-maximal inhibition upon 10-fold dilution ([1]; bacterial and trypanosomal (G)PI-PLC, dilution with excess of fresh GPI-protein substrate): completely reversed
- IC50 ([1]; bacterial, trypanosome and serum GPI-PLC and GPI-PLD, one range for all): 0.2 to 10 µM
- effect on phospholipase activity (bacterial PC-PLC): not significantly affected
